“Also recorded” adds a separate entry of the source. Each block holds one compound with its values, some of them ahead of it.
Legend:
[1] = tested on: cigarette smoke induced COPD model, 3MR or INK-ATTAC mice; assay: Cigarette smoke (CS) induced COPD model, oxygen saturation; format: in vivo, mouse; details: after two months of cigarette smoke exposure, compared with untreated controls
Experimental: As a model for chronic obstructive pulmonary disease (COPD), mice were exposed to cigarette smoke. The effect of a senolytic agent on the mice exposed to smoke is assessed by senescent cell clearance, lung function, and histopathology. The mice used in this study include the 3MR strain, described in US 2017/0027139 A1 and in Demaria et al., Dev Cell. 2014 Dec. 22; 31(6): 722-733. […] The enzyme in the transgene is placed under control of the p16 promoter, which causes it to be specifically expressed in senescent cells. Treatment of the mice with GCV eliminates senescent cells. Other mice used in this study include the […] strain, described in US 2015/0296755 A1 and in Baker et al., Nature 2011 Nov. 2; 479(7372):232-236. The […] mouse has a transgene encoding switchable caspase 8 under control of the p16 promoter. The caspase 8 can be activated by treating the mice with the switch compound AP20187, whereupon the caspase 8 directly induces apoptosis in senescent cells, eliminating them from the mouse. To conduct the experiment, six-week-old 3MR (n=35) or […]=35) mice were chronically exposed to cigarette smoke generated from a Teague TE-10 system, an automatically-controlled cigarette smoking machine that produces a combination of side-stream and mainstream cigarette smoke in a chamber, which is transported to a collecting and mixing chamber where varying amounts of air is mixed with the smoke mixture. The COPD protocol was adapted from the COPD core facility at Johns Hopkins University (Rangasamy et al., 2004, J. Clin. Invest. 114:1248-1259; Yao et al., 2012, J. Clin. Invest. 122:2032-2045). Mice received a total of 6 hours of cigarette smoke exposure per day, 5 days a week for 6 months. Each lighted cigarette (3R4F research cigarettes containing 10.9 mg of total particulate matter (TPM), 9.4 mg of tar, and 0.726 mg of nicotine, and 11.9 mg carbon monoxide per cigarette [University of Kentucky, Lexington, Ky.]) was puffed for 2 seconds and once every minute for a total of 8 puffs, with the flow rate of 1.05 L/min, to provide a standard puff of 35 cm3. The smoke machine was adjusted to produce a mixture of side stream smoke (89%) and mainstream smoke (11%) by smoldering 2 cigarettes at one time. The smoke chamber atmosphere was monitored for total suspended particulates (80-120 mg/m3) and carbon monoxide (350 ppm). […] An equal number of mice received the corresponding vehicle. […] After two months of cigarette smoke (CS) exposure, lung function was assessed by monitoring oxygen saturation using the MouseSTAT PhysioSuiteTM pulse oximeter (Kent Scientific). […] Mice were monitored for 30 seconds and the average peripheral capillary oxygen saturation (SpO2) measurement over this duration was calculated.

[2] = background statement; cited from earlier work
[3] = tested on: atherosclerosis model, LDLR-/- mice; assay: Atherosclerosis model, LDLR-/- mice fed a high fat diet, systemic administration; format: in vivo, mouse
Experimental: This example illustrates the testing of an MDM2 inhibitor in a mouse model for treatment of atherosclerosis. The test compounds are administered systemically rather than locally. The model is done in an LDLR−/− strain of mice, which are deficient in the receptor for low-density lipoprotein. The experiments described here can be adapted mutatis mutandis to test and develop other types of inhibitors for use in clinical therapy.
Two groups of LDLR−/− mice (10 weeks) are fed a high fat diet (HFD) (Harlan Teklad TD.88137) having 42% calories from fat, beginning at Week 0 and throughout the study. Two groups of LDLR−/− mice (10 weeks) are fed normal chow (−HFD). From weeks 0-2, one group of HFD mice and —HFD mice are treated with Nutlin-3A (25 mg/kg, intraperitoneally). One treatment cycle is 14 days treatment, 14 days off. Vehicle is administered to one group of HFD mice and one group of −HFD mice. At week 4 (timepoint 1), one group of mice are sacrificed and to assess presence of senescent cells in the plaques. For the some of the remaining mice, Nutlin-3A and vehicle administration is repeated from weeks 4-6. At week 8 (timepoint 2), the mice are sacrificed and to assess presence of senescent cells in the plaques. The remaining mice are treated with Nutlin-3A or vehicle from weeks 8-10. At week 12 (timepoint 3), the mice are sacrificed and to assess the level of plaque and the number of senescent cells in the plaques.
Plasma lipid levels were measured in LDLR−/− mice fed a HFD and treated with Nutlin-3A or vehicle at timepoint 1 as compared with mice fed a —HFD (n=3 per group). Plasma was collected mid-afternoon and analyzed for circulating lipids and lipoproteins.
At the end of timepoint 1, LDLR−/− mice fed a HFD and treated with Nutlin-3A or vehicle were sacrificed (n=3, all groups), and the aortic arches were dissected for RT-PCR analysis of SASP factors and senescent cell markers. Values were normalized to GAPDH and expressed as fold-change versus age-matched, vehicle-treated LDLR−/− mice on a normal diet.
At the end of timepoint 2, LDLR−/− mice fed a HFD and treated with Nutlin-3A or vehicle (n=3 for all groups) were sacrificed, and aortic arches were dissected for RT-PCR analysis of SASP factors and senescent cell markers. Values were normalized to GAPDH and expressed as fold-change versus age-matched, vehicle-treated LDLR−/− mice on a normal diet.
At the end of timepoint 3, LDLR−/− mice fed a HFD and treated with Nutlin-3A or vehicle (n=3 for all groups) were sacrificed, and aortas were dissected and stained with Sudan IV to detect the presence of lipid. Body composition of the mice was analyzed by MRI, and circulating blood cells were counted by Hemavet™.

[4] = tested on: osteoarthritis model, C57BL/6J mice; assay: Osteoarthritis model (ACL surgery), intra-articular injection; format: in vivo, mouse
Experimental: This example illustrates the testing of an MDM2 inhibitor in a mouse model for treatment of osteoarthritis. It can be adapted mutatis mutandis to test and develop Bcl inhibitors for use in clinical therapy.
The model was implemented as follows. C57BL/6J mice underwent surgery to cut the anterior cruciate ligament of one rear limb to induce osteoarthritis in the joint of that limb. During week 3 and week 4 post-surgery, the mice were treated with 5.8 μg of Nutlin-3A (n=7) per operated knee by intra-articular injection, q.o.d. for 2 weeks. At the end of 4 weeks post-surgery, joints of the mice were monitored for presence of senescent cells, assessed for function, monitored for markers of inflammation, and underwent histological assessment.
Two control groups of mice were included in the studies performed: one group comprising C57BL/6J or 3MR mice that had undergone a sham surgery (n=3) (i.e., surgical procedures followed except for cutting the ACL) and intra-articular injections of vehicle parallel to the GCV (ganciclovir) treated group; and one group comprising C57BL/6J or 3MR mice that had undergone an ACL surgery and received intra-articular injections of vehicle (n=5) parallel to the GCV-treated group. RNA from the operated joints of mice from the Nutlin-3A treated mice was analyzed for expression of SASP factors (mmp3, IL-6) and senescence markers (p16). qRT-PCR was performed to detect mRNA levels.
Function of the limbs was assessed 4 weeks post-surgery by a weight bearing test to determine which leg the mice favored. The mice were allowed to acclimate to the chamber on at least three occasions prior to taking measurements. Mice were maneuvered inside the chamber to stand with one hind paw on each scale. The weight that was placed on each hind limb was measured over a three second period. At least three separate measurements were made for each animal at each time point. The results were expressed as the percentage of the weight placed on the operated limb versus the contralateral unoperated limb.

SMILES: CC1(C)CCC(c2ccc(Cl)cc2)=C(CN2CCN(c3ccc(C(=O)NS(=O)(=O)c4ccc(N[C@H](CCN5CCOCC5)CSc5ccccc5)c(S(=O)(=O)C(F)(F)F)c4)cc3)CC2)C1 [ABT-263, Navitoclax]
SpO2 levels [1]: statistically significant increases

SMILES: CN(C)CC[C@H](CSc1ccccc1)Nc1ccc(S(=O)(=O)NC(=O)c2ccc(N3CCN(Cc4ccccc4-c4ccc(Cl)cc4)CC3)cc2)cc1[N+](=O)[O-] [ABT-737]
dose-limiting toxicity in human patients [2]: dose-limiting thrombocytopenia

SMILES: CC[C@H](C(=O)N1CCCC[C@H]1C(=O)O[C@H](CCc1ccc(OC)c(OC)c1)c1cccc(OCC(=O)NCC(CNC(=O)COc2cccc([C@@H](CCc3ccc(OC)c(OC)c3)OC(=O)[C@@H]3CCCCN3C(=O)[C@@H](CC)c3cc(OC)c(OC)c(OC)c3)c2)CN(C)C)c1)c1cc(OC)c(OC)c(OC)c1 [AP2018]
SpO2 levels [1]: statistically significant increases

platelet and lymphocyte counts versus vehicle treated mice ([3]; timepoint 3, Hemavet): equivalent
SMILES: COc1ccc(C2=N[C@@H](c3ccc(Cl)cc3)[C@@H](c3ccc(Cl)cc3)N2C(=O)N2CCNC(=O)C2)c(OC(C)C)c1 [Nutlin-3A]
expression of SASP factors and senescent cell markers in aortic arch, timepoint 2 ([3]; HFD, multiple treatment cycles, 25 mg/kg i.p., RT-PCR): reduced expression of most markers | expression of SASP factors and senescent cell markers in aortic arch, timepoint 1 ([3]; HFD, one treatment cycle, 25 mg/kg i.p., MMP3, MMP13, PAI1, p21, IGFBP2, IL-1A, IL-1B, RT-PCR): reduced expression of several SASP factors and senescent cell markers | reduction of surface area covered by plaques in the descending aorta ([3]; HFD, timepoint 3 (week 12), Sudan IV staining): about 45% | mass and body fat composition ([3]; mice fed the high fat diet, MRI, timepoint 3): decreased | SpO2 levels [1]: statistically significant increases | clearance of senescent cells from the joint ([4]; 5.8 μg per knee intra-articular): cleared senescent cells from the joint | weight bearing: favoring of unoperated over operated hind limb ([4]; 4 weeks post-surgery): abrogated this effect | histopathology: destruction of the proteoglycan layer ([4]; joint tissue after ACL surgery): completely abrogated this effect | expression of p16, IL-6, and MMP13 in the tissue ([4]; operated joint, qRT-PCR, 4 weeks post-surgery, 5.8 μg per knee intra-articular q.o.d. 2 weeks): reduced the expression back to below the level of the controls; also recorded: ameliorated

SMILES: Nc1nc(O)c2ncn(COC(CO)CO)c2n1 [ganciclovir]
SpO2 levels [1]: statistically significant increases

From US10981892B2, “Acyl sulfonamides that are Bcl family antagonists for use in clinical management of conditions caused or mediated by senescent cells and for treating cancer” (Unity Biotechnology, Inc., priority 2018, dated 2021)
